Key:
wheat (Triticum spp.) = experiment: Test Example 1: foliar treatment, growth inhibition rate, wheat; type: in vivo; settings: 31 g/ha active ingredient, visually observed 17th to 23rd day after application; for pest or weed control at 31 g/ha: Triticum
Procedure, shortened: (§1)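 Seeds were sown in upland field soil in pots. At the target leaf stage (corn 2.0–3.5; greenfoxtail 1.0–3.0; rice 1.0–2.5; wheat 1.7–3.4), the formulated compound, diluted at a water volume of 500 L/ha with 0.1 vol % spreader, was applied by small sprayer. Plants were rated by eye on days 17–23.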

corn (Zea mays L.) = experiment: Test Example 1: foliar treatment, growth inhibition rate, corn; type: in vivo; settings: 31 g/ha active ingredient, visually observed 17th to 23rd day after application; for pest or weed control at 31 g/ha: Zea mays
Procedure, shortened: as §1

barnyardgrass = experiment: Test Example 2: soil application on the day after sowing, growth inhibition rate, barnyardgrass; type: in vivo, Echinochloa crus-galli L.; settings: 250 g/ha active ingredient, observed on 19th to 24th day; for inhibition at 250 g/ha: Echinochloa crus-galli
Procedure, shortened: (§2)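 Pre-emergence soil treatment: one day post-sowing in upland soil, compound formulations at set active-ingredient rates were applied in 500 L/ha water. Visual rating of growth inhibition (0% untreated-equivalent to 100% complete kill) followed on days 19–24 after application.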

[1] = test system: redroot pigweed (Amaranthus retroflexus L.); experiment: Test Example 1: foliar treatment, growth inhibition rate, redroot pigweed; type: in vivo; settings: 31 g/ha active ingredient, visually observed 17th to 23rd day after application
Procedure, shortened: (§3)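 Visual scoring of growth inhibition, 0% (untreated) to 100% (complete kill), on days 17–23 following post-emergence spray of formulated compound in water (500 L/ha, 0.1 vol % spreader); plants treated at set leaf stages, e.g. corn 2.0–3.5, wheat 1.7–3.4.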

[2] = test system: crabgrass (Digitaria sanguinalis L.); experiment: Test Example 1: foliar treatment, growth inhibition rate, crabgrass; type: in vivo; settings: 31 g/ha active ingredient, visually observed 17th to 23rd day after application; for pest or weed control at 31 g/ha: Digitaria sanguinalis
Procedure, shortened: as §3

rice = experiment: Test Example 2: soil application on the day after sowing, growth inhibition rate, rice; type: in vivo, Oryza sativa L.; settings: 250 g/ha active ingredient, observed on 19th to 24th day; for inhibition at 250 g/ha: Oryza sativa
Procedure, shortened: as §2

crabgrass = experiment: Test Example 2: soil application on the day after sowing, growth inhibition rate, crabgrass; type: in vivo, Digitaria sanguinalis L.; settings: 250 g/ha active ingredient, observed on 19th to 24th day; for inhibition at 250 g/ha: Digitaria sanguinalis
Procedure, shortened: as §2

redroot pigweed = experiment: Test Example 2: soil application on the day after sowing, growth inhibition rate, redroot pigweed; type: in vivo, Amaranthus retroflexus L.; settings: 250 g/ha active ingredient, observed on 19th to 24th day; for inhibition at 250 g/ha: Amaranthus retroflexus
Procedure, shortened: as §2

[3] = test system: barnyardgrass (Echinochloa crus-galli L.); experiment: Test Example 1: foliar treatment, growth inhibition rate, barnyardgrass; type: in vivo; settings: 31 g/ha active ingredient, visually observed 17th to 23rd day after application; for pest or weed control at 31 g/ha: Echinochloa crus-galli
Procedure, shortened: as §3

rice (Oryza sativa L.) = experiment: Test Example 1: foliar treatment, growth inhibition rate, rice; type: in vivo; settings: 31 g/ha active ingredient, visually observed 17th to 23rd day after application; for pest or weed control at 31 g/ha: Oryza sativa
Procedure, shortened: as §1

[4] = test system: velvetleaf (Abutilon theophrasti MEDIC.); experiment: Test Example 1: foliar treatment, growth inhibition rate, velvetleaf; type: in vivo; settings: 31 g/ha active ingredient, visually observed 17th to 23rd day after application; for pest or weed control at 31 g/ha: Abutilon theophrasti
Procedure, shortened: as §3

corn = experiment: Test Example 2: soil application on the day after sowing, growth inhibition rate, corn; type: in vivo, Zea mays L.; settings: 250 g/ha active ingredient, observed on 19th to 24th day; for inhibition at 250 g/ha: Zea mays
Procedure, shortened: as §2

soybean = experiment: Test Example 2: soil application on the day after sowing, growth inhibition rate, soybean; type: in vivo, Glycine max Merr.; settings: 250 g/ha active ingredient, observed on 19th to 24th day; for inhibition at 250 g/ha: Glycine max
Procedure, shortened: as §2

wheat = experiment: Test Example 2: soil application on the day after sowing, growth inhibition rate, wheat; type: in vivo, Triticum spp.; settings: 250 g/ha active ingredient, observed on 19th to 24th day; for inhibition at 250 g/ha: Triticum aestivum
Procedure, shortened: as §2

[5] = test system: greenfoxtail (Setaria viridis L.); experiment: Test Example 1: foliar treatment, growth inhibition rate, greenfoxtail; type: in vivo; settings: 31 g/ha active ingredient, visually observed 17th to 23rd day after application; for pest or weed control at 31 g/ha: Setaria viridis
Procedure, shortened: as §1

velvetleaf = experiment: Test Example 2: soil application on the day after sowing, growth inhibition rate, velvetleaf; type: in vivo, Abutilon theophrasti MEDIC.; settings: 250 g/ha active ingredient, observed on 19th to 24th day; for inhibition at 250 g/ha: Abutilon theophrasti
Procedure, shortened: as §2

greenfoxtail = experiment: Test Example 2: soil application on the day after sowing, growth inhibition rate, greenfoxtail; type: in vivo, Setaria viridis L.; settings: 250 g/ha active ingredient, observed on 19th to 24th day; for inhibition at 250 g/ha: Setaria viridis
Procedure, shortened: as §2

prickly sida = experiment: Test Example 2: soil application on the day after sowing, growth inhibition rate, prickly sida; type: in vivo, Sida spinosa L.; settings: 250 g/ha active ingredient, observed on 19th to 24th day; for inhibition at 250 g/ha: Sida spinosa
Procedure, shortened: as §2

[6] = test system: prickly sida (Sida spinosa L.); experiment: Test Example 1: foliar treatment, growth inhibition rate, prickly sida; type: in vivo; settings: 31 g/ha active ingredient, visually observed 17th to 23rd day after application
Procedure, shortened: as §3

[7] = test system: soybean (Glycine max Merr.); experiment: Test Example 1: foliar treatment, growth inhibition rate, soybean; type: in vivo; settings: 31 g/ha active ingredient, visually observed 17th to 23rd day after application
Procedure, shortened: as §3

| Compound | pest or weed control at 31 g/ha (wheat (Triticum spp.)) [%] | pest or weed control at 31 g/ha (corn (Zea mays L.)) [%] | inhibition at 250 g/ha (barnyardgrass) [%] | Growth inhibition rate (%) redroot pigweed [1] [%] | pest or weed control at 31 g/ha [2] [%] | inhibition at 250 g/ha (rice) [%] | inhibition at 250 g/ha (crabgrass) [%] | inhibition at 250 g/ha (redroot pigweed) [%] | pest or weed control at 31 g/ha [3] [%] | pest or weed control at 31 g/ha (rice (Oryza sativa L.)) [%] | pest or weed control at 31 g/ha [4] [%] | inhibition at 250 g/ha (corn) [%] | inhibition at 250 g/ha (soybean) [%] | inhibition at 250 g/ha (wheat) [%] | pest or weed control at 31 g/ha [5] [%] | inhibition at 250 g/ha (velvetleaf) [%] | inhibition at 250 g/ha (greenfoxtail) [%] | inhibition at 250 g/ha (prickly sida) [%] | Growth inhibition rate (%) Prickly sida [6] [%] | Growth inhibition rate (%) Soybean [7] [%] | further results |
| --- | --- | --- | --- | --- | --- | --- | --- | --- | --- | --- | --- | --- | --- | --- | --- | --- | --- | --- | --- | --- | --- |
| CCSC(=O)Oc1c(C(=O)c2ccc(S(C)(=O)=O)c(C(=O)OC)c2C)cnn1C [Compound No. 1, 5-(ethylthio)carbonyloxy-1-methylpyrazol-4-yl 3-(methoxycarbonyl)-2-methyl-4-(methylsulfonyl)phenyl ketone] | 0 | 10 | 100 | 100 | 80 | 95 | 100 | 100 | 90 | 80 | 100 | 0 | 75 | 10 | 100 | 60 | 100 | 60 | 70 |  |  |
| COC(=O)c1c(S(C)(=O)=O)ccc(C(=O)c2cnn(C)c2OC(=O)SC)c1C [Compound No. 3] |  |  |  | 90 |  |  |  |  |  |  |  |  |  |  |  |  |  |  | 90 | 95 | Growth inhibition rate (%) Wheat (wheat (Triticum spp.)): 50%; Growth inhibition rate (%) Corn (corn (Zea mays L.)): 60%; Growth inhibition rate (%) Barnyardgrass (barnyardgrass): 60%; Growth inhibition rate (%) Crabgrass [2]: 95%; Growth inhibition rate (%) Rice (rice): 95%; Growth inhibition rate (%) Crabgrass (crabgrass): 100%; Growth inhibition rate (%) redroot pigweed (redroot pigweed): 100%; Growth inhibition rate (%) Barnyardgrass [3]: 95%; Growth inhibition rate (%) Rice (rice (Oryza sativa L.)): 100%; Growth inhibition rate (%) Velvetleaf [4]: 95%; Growth inhibition rate (%) Corn (corn): 0%; Growth inhibition rate (%) Soybean (soybean): 40%; Growth inhibition rate (%) Wheat (wheat): 0%; Growth inhibition rate (%) Greenfoxtail [5]: 100%; Growth inhibition rate (%) Velvetleaf (velvetleaf): 70%; Growth inhibition rate (%) Greenfoxtail (greenfoxtail): 60%; Growth inhibition rate (%) Prickly sida (prickly sida): 95% |
| CCSC(=O)Oc1c(C(=O)c2ccc(S(C)(=O)=O)c(OC)c2C)cnn1C [Compound No. 35, 5-(ethylthio)carbonyloxy-1-methylpyrazol-4-yl 3-(methoxy)-2-methyl-4-(methylsulfonyl)phenyl ketone] | 0 | 0 | 90 | 90 | 80 | 90 | 100 | 95 | 90 | 80 | 80 | 0 | 0 | 0 | 100 | 20 | 70 | 90 | 40 | 90 |  |
| CCSC(=O)Oc1c(C(=O)c2ccc(S(C)(=O)=O)c(OC(F)F)c2C)cnn1C [Compound No. 38, 5-(ethylthio)carbonyloxy-1-methylpyrazol-4-yl 3-(difluoromethoxy)-2-methyl-4-(methylsulfonyl)phenyl ketone] | 0 | 0 | 90 | 20 | 0 | 60 | 95 | 90 | 80 | 40 | 60 | 0 | 0 | 0 | 30 | 20 | 70 | 70 | 40 | 70 |  |
| CCSC(=O)Oc1c(C(=O)c2ccc(S(C)(=O)=O)c(C(=O)OC)c2Cl)cnn1C [compound 27] |  |  |  | 95 |  |  |  |  |  |  |  |  |  |  |  |  |  |  | 70 | 90 | Growth inhibition rate (%) Wheat (wheat (Triticum spp.)): 10%; Growth inhibition rate (%) Corn (corn (Zea mays L.)): 40%; Growth inhibition rate (%) Barnyardgrass (barnyardgrass): 100%; Growth inhibition rate (%) Crabgrass [2]: 80%; Growth inhibition rate (%) Rice (rice): 90%; Growth inhibition rate (%) Crabgrass (crabgrass): 95%; Growth inhibition rate (%) redroot pigweed (redroot pigweed): 100%; Growth inhibition rate (%) Barnyardgrass [3]: 100%; Growth inhibition rate (%) Rice (rice (Oryza sativa L.)): 80%; Growth inhibition rate (%) Velvetleaf [4]: 80%; Growth inhibition rate (%) Corn (corn): 0%; Growth inhibition rate (%) Soybean (soybean): 0%; Growth inhibition rate (%) Wheat (wheat): 10%; Growth inhibition rate (%) Greenfoxtail [5]: 100%; Growth inhibition rate (%) Velvetleaf (velvetleaf): 95%; Growth inhibition rate (%) Greenfoxtail (greenfoxtail): 98%; Growth inhibition rate (%) Prickly sida (prickly sida): 100% |
| CCOc1c(S(C)(=O)=O)ccc(C(=O)c2cnn(C)c2OC(=O)SCC)c1C [compound 36] |  |  |  | 100 |  |  |  |  |  |  |  |  |  |  |  |  |  |  | 100 |  | Growth inhibition rate (%) Wheat (wheat (Triticum spp.)): 50%; Growth inhibition rate (%) Corn (corn (Zea mays L.)): 10%; Growth inhibition rate (%) Barnyardgrass (barnyardgrass): 100%; Growth inhibition rate (%) Crabgrass [2]: 98%; Growth inhibition rate (%) Rice (rice): 80%; Growth inhibition rate (%) Crabgrass (crabgrass): 100%; Growth inhibition rate (%) redroot pigweed (redroot pigweed): 100%; Growth inhibition rate (%) Barnyardgrass [3]: 100%; Growth inhibition rate (%) Rice (rice (Oryza sativa L.)): 70%; Growth inhibition rate (%) Velvetleaf [4]: 100%; Growth inhibition rate (%) Corn (corn): 0%; Growth inhibition rate (%) Soybean (soybean): 30%; Growth inhibition rate (%) Wheat (wheat): 0%; Growth inhibition rate (%) Greenfoxtail [5]: 100%; Growth inhibition rate (%) Velvetleaf (velvetleaf): 50%; Growth inhibition rate (%) Greenfoxtail (greenfoxtail): 100%; Growth inhibition rate (%) Prickly sida (prickly sida): 60% |
